# In paper PMC3460729, “Innate immune properties of selected human neuropeptides against Moraxella catarrhalis and nontypeable Haemophilus influenzae” (BMC Immunology, 2012):
# Marks after values point to notes of the source that are not given here.
# Key:
# human PMNs [1] = test: PMA-induced chemiluminescence in PMNs; format: cell-based; conditions: 0.1 μM PMA, 0 to 60 min; five independent experiments in triplicate, 5 donors
# Method: Reactive oxygen species (ROS) formation by PMNs was measured using luminol-dependent chemiluminescence assay (CL) in white flat-bottom 96-well microplates (NUNC, Denmark). The reaction mixture of total volume 200 μl in each well contained: 100 μl of PMN suspension in HBSS–Ca^++Mg^++ (10^5 cells/well), 40 μl of luminol (50 μM/well), 40 μl of fMLP (0.2 μM/well), 20 μl of particular NP (in the range 10^−12–10^−8 M/well). In other experiments, the respiratory burst was triggered by phagocytosis of 40 μl heat killed (56°C/30 min) M. catarrhalis ATCC 25238 or H. influenzae ATCC 49247 at concentration of ½ of OD600 = 1 or OD600 = 1, respectively. […] The PMA stimulus at 0.1 μM final concentration was used as positive control of the relevant oxidative stress. The CL kinetics was measured at constant 37°C temperature using luminometer (Microlumat, LB96P, Berthold) and recorded as relative light units (RLU). Measuring conditions for fMLP were: interval (46 s), run time (up to 30 min). The conditions for bacterial and PMA stimulation were: interval (83 s), run time (up to 60 min). The maximal value of CL response curve was expressed as peak height (PHCL) for fMLP stimulant. In other cases the area under chemiluminescence curve (AUCCL) was calculated. Each sample was run in triplicate and the values were averaged. […] Results were expressed as mean ± SD. […]
# E. coli ML-35p = test: ONPG-mediated β-galactosidase membrane permeability assay; format: cell-based, Escherichia coli; conditions: for time of maximal OD increase (ONPG influx): 100 μM neuropeptide; for ID50 (inducible dose) for intracellular influx of ONPG: dose causing 50% increase in OD405 in reference to chloroform-inducible maximum at 45 min, 10^6 CFU/ml, NaPB pH 7.4, 3 mM ONPG, 37°C, triplicate
# Method: To measure the activity of neuropeptides in permeabilization of bacterial membrane, the ONPG-mediated β-galactosidase microplate assay was used. Permeabilization was measured using E. coli ML-35 with constitutive cytoplasmic β-galactosidase activity as previously described. Briefly, 18 h E. coli ML-35p in TSB was recultivated in TSB until mid-log phase (OD600 = 0.5). Flasks were put on ice for 20 min, and 2 ml of bacterial suspensions were transferred to Eppendorf tubes, washed twice with 10 mM sodium phosphate NaPB (pH 7.4) and suspended in NaPB to OD600 = 0.5. […] Microplates were incubated at 37°C for 1.5 h and optical densities were measured every 15 minutes at λ=405 nm (spectrophotometer Opsys MR Dynex Technologist). All the assays were performed in triplicate. Two positive controls were used: polymyxin B at the final concentration of 1 μg/ml as an established model of peptide permeabilizing action, and 20% chloroform (v/v). […] The molar concentration of NP that caused such increase was extrapolated from a linear portion of NP titration curve. Negative controls constituted bacteria incubated with NaPB and ONPG but without neuropeptides.
# M. catarrhalis Mc5, Mc6 = test: Time kill assay from 0 to 1.5 h; format: cell-based, Moraxella catarrhalis; conditions: 100 μM
# Method: (§1) For the time kill assay from 0 to 1.5 h, overnight cultures of Mc and NTHi were inoculated into new medium and incubated under the relevant conditions until early log-phase (OD600 = 0.25–0.3). The bacteria were diluted in 10 mM sodium phosphate buffer, NaPB, (pH 7.4) containing 1% (w/v) BHI to obtain ~2 x 10^6 CFU/ml. […] After each time of incubation the suspensions were 10-fold serially diluted with 10 mM NaPB-1% BHI and 20 μl aliquots were plated in triplicate on BHI (M. catarrhalis) or HAEM (H. influenzae) agar plates. The plates were incubated overnight at 37°C in 5% CO2 conditions. Simultaneously, the incubation of bacteria in the presence of an appropriate diluent was included for positive control of bacterial growth. The colony counts and CFU/ml were calculated next day. The bactericidal activity of neuropeptides was expressed as survival ratios determined as the numbers of CFU after neuropeptide incubation divided by the numbers of CFU estimated from a control plate (time 0). All antimicrobial assays were performed at least two times in triplicate.
# [2] = tested on: nontypeable H. influenzae NTHi3, NTHi6; test: Time kill assay from 0 to 1.5 h; format: cell-based, Haemophilus influenzae; conditions: 100 μM, clinical isolates of H. influenzae
# Method: as §1
# human PMNs [3] = test: fMLF-induced ROS generation by PMNs, luminol-dependent chemiluminescence; format: cell-based; conditions: for ROS release [% of control]: 0.2 μM fMLF, peak height PHCL, mean of three independent experiments
# Method: (§2) Polymorphonuclear leukocytes (PMNs) from healthy young adult volunteers were isolated from venous blood samples anticoagulated with Lithium-heparin (7.5 ml) by ficoll (Aqua-Med, Poland) density gradient centrifugation (2000 rpm/30 min), followed by hypotonic lysis of erythrocytes with a lysing buffer (0.83% NH4Cl, 0.1% KHCO3, EDTA, pH 7.4). After two washes (1400 rpm/10 min) in PBS, PMNs were resuspended to the final concentration of […] cells/ml in phagocytic buffer: HBSS with Ca^++ and Mg^++ supplemented with 1% HiFBS. The purity of granulocyte suspensions was checked using 15 μg/ml of acridine orange. […] Isolated PMNs were kept for 30 min at 37°C and 5% CO2 until used.
# Reactive oxygen species (ROS) formation by PMNs was measured using luminol-dependent chemiluminescence assay (CL) in white flat-bottom 96-well microplates (NUNC, Denmark). The reaction mixture of total volume 200 μl in each well contained: 100 μl of PMN suspension in HBSS–Ca^++Mg^++ (10^5 cells/well), 40 μl of luminol (50 μM/well), 40 μl of fMLP (0.2 μM/well), 20 μl of particular NP (in the range 10^−12–10^−8 M/well). In other experiments, the respiratory burst was triggered by phagocytosis of 40 μl heat killed (56°C/30 min) M. catarrhalis ATCC 25238 or H. influenzae ATCC 49247 at concentration of ½ of OD600 = 1 or OD600 = 1, respectively. […] The PMA stimulus at 0.1 μM final concentration was used as positive control of the relevant oxidative stress. The CL kinetics was measured at constant 37°C temperature using luminometer (Microlumat, LB96P, Berthold) and recorded as relative light units (RLU). Measuring conditions for fMLP were: interval (46 s), run time (up to 30 min). The conditions for bacterial and PMA stimulation were: interval (83 s), run time (up to 60 min). The maximal value of CL response curve was expressed as peak height (PHCL) for fMLP stimulant. In other cases the area under chemiluminescence curve (AUCCL) was calculated. Each sample was run in triplicate and the values were averaged. […] Results were expressed as mean ± SD.
# [4] = tested on: human PMNs stimulated with M. catarrhalis ATCC 25238; test: M. catarrhalis-stimulated ROS generation by PMNs, luminol-dependent chemiluminescence; format: cell-based; conditions: 10^−8 M NP, nonopsonized M. catarrhalis; mean ± SD, n = 5-6 donors
# Method: as §2
# Reactive oxygen species (ROS) formation by PMNs was measured using luminol-dependent chemiluminescence assay (CL) in white flat-bottom 96-well microplates (NUNC, Denmark). The reaction mixture of total volume 200 μl in each well contained: 100 μl of PMN suspension in HBSS–Ca^++Mg^++ (10^5 cells/well), 40 μl of luminol (50 μM/well), 40 μl of fMLP (0.2 μM/well), 20 μl of particular NP (in the range 10^−12–10^−8 M/well). […] The maximal value of CL response curve was expressed as peak height (PHCL) for fMLP stimulant. In other cases the area under chemiluminescence curve (AUCCL) was calculated. […] Results were expressed as mean ± SD.
Compound,log10 of mean AUCCL ± SEM (human PMNs [1]),time of maximal OD increase (ONPG influx) (E. coli ML-35p) [min],ID50 (inducible dose) for intracellular influx of ONPG (E. coli ML-35p) [µM],"type of antibacterial activity (M. catarrhalis Mc5, Mc6; both Mc strains)",type of antibacterial activity [2],"culture survived (M. catarrhalis Mc5, Mc6; Mc5 and Mc6, 0.5 h) [%]",ROS release [% of control] (human PMNs [3]; 10^-8 M NP),ROS release [% of control] (human PMNs [3]; 10^-10 M NP),ROS release [% of control] (human PMNs [3]; 10^-12 M NP),"activation of respiratory burst of PMNs (human PMNs [3]; neuropeptide alone, without stimulus)",increase of mean AUCCL [4] [%]
"CCCCCCCCCCCCCC(=O)O[C@@H]1[C@@H](C)[C@@]2(O)[C@@H](C=C(CO)C[C@]3(O)C(=O)C(C)=C[C@@H]23)[C@@H]2C(C)(C)[C@]12OC(C)=O [PMA, phorbol myristate acetate]",6.05 ± 4.32,,,,,,,,,,
"C[C@H](N)C(=O)NCC(=O)N[C@H]1CSSC[C@@H](C(=O)O)NC(=O)[C@H](CO)NC(=O)[C@H]([C@@H](C)O)NC(=O)[C@H](Cc2ccccc2)NC(=O)[C@H]([C@@H](C)O)NC(=O)[C@H](CCCCN)NC(=O)[C@H](Cc2c[nH]c3ccccc23)NC(=O)[C@H](Cc2ccccc2)NC(=O)[C@H](Cc2ccccc2)NC(=O)[C@H](CC(N)=O)NC(=O)[C@H](CCCCN)NC1=O [SOM, somatostatin]",,90,104.1,bacteriostatic,bacteriostatic,,,,,,
"CSCC[C@H](NC(=O)[C@H](CC(C)C)NC(=O)CNC(=O)[C@H](Cc1ccccc1)NC(=O)[C@H](Cc1ccccc1)NC(=O)[C@H](CCC(N)=O)NC(=O)[C@H](CCC(N)=O)NC(=O)[C@@H]1CCCN1C(=O)[C@H](CCCCN)NC(=O)[C@@H]1CCCN1C(=O)[C@@H](N)CCCNC(=N)N)C(N)=O [SP, substance P]",,90,29.2,,,~100,179.18^a % of control,160.36^a % of control,140.83^a % of control,did not activate,14.2 ± 3.4
